According to ChEMBL document CHEMBL1149437, “1-Alkyl-benzotriazole-5-carboxylic acids are highly selective agonists of the human orphan G-protein-coupled receptor GPR109b” (J Med Chem, 2006):
pEC50: −log10 of the molar value. The source made the active and inactive calls. No cut-off for these calls is given here.

Assays:
[1] = molecular target: Hydroxycarboxylic acid receptor 3 (Homo sapiens, UniProt P49019); experiment: Agonistic activity at GPR109b by cAMP whole cell assay; type: functional
[2] = molecular target: Hydroxycarboxylic acid receptor 2 (Mus musculus) (UniProt Q9EP66); experiment: Activity against GPR109a upto 100 uM; type: functional
Chain of Hydroxycarboxylic acid receptor 2 (Mus musculus) (Q9EP66 whole entry): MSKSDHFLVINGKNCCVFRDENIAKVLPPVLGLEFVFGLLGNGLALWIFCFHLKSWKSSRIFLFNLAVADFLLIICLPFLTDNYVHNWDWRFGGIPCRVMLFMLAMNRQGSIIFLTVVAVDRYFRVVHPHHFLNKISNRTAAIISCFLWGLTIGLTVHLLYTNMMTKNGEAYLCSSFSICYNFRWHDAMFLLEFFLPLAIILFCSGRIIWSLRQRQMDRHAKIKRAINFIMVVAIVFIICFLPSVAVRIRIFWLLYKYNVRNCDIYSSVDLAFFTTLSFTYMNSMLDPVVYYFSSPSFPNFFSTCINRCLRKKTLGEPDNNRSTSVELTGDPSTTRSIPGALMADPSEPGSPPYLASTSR

[3] = molecular target: Adrenergic receptor beta (Homo sapiens) (UniProt P08588+P07550+P13945); experiment: Activity against beta adrenergic receptor; type: protein assay

Chain of Hydroxycarboxylic acid receptor 3 (P49019 whole entry): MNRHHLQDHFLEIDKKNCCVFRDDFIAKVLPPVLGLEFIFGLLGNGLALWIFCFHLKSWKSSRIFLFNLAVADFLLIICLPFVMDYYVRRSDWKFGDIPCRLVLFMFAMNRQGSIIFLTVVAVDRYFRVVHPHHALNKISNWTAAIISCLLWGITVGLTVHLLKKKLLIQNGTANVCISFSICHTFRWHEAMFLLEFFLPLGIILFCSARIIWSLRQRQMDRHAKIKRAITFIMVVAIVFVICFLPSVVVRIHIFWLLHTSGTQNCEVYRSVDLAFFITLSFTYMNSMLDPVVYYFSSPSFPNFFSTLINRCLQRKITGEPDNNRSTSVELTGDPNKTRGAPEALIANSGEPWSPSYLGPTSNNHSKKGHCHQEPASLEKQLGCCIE

| Structure (SMILES) | pEC50 [1] | Activity [2] | Log EC50 [1] | Activity [3] |
| --- | --- | --- | --- | --- |
| CCSCCn1nnc2cc(C(=O)O)ccc21 | 6.52 | inactive |  |  |
| O=C(O)c1ccc2c(c1)nnn2C1CCCC1 | 5.96 | inactive |  |  |
| CCC(CC)n1nnc2cc(C(=O)O)ccc21 | 5.52 | inactive |  |  |
| CCCCn1nnc2cc(C(=O)O)ccc21 | 6.16 | inactive |  |  |
| Cc1nc2cc(C(=O)O)ccc2n1C(C)C |  | inactive | inactive |  |
| O=C(O)c1ccc2c(c1)nnn2C1CC1 | 5.63 | inactive |  |  |
| CCCCCn1nnc2cc(C(=O)O)ccc21 | 6.54 | inactive |  |  |
| Cn1nnc2cc(C(=O)O)ccc21 | 5.70 | inactive |  |  |
| COc1cccc(Cn2nnc3cc(C(=O)O)ccc32)c1 | 5.30 | inactive |  |  |
| O=C(O)c1ccc2c(c1)nnn2-c1ccccc1 |  | inactive | inactive |  |
| O=C(O)c1ccc2c(c1)nnn2C1CCC1 | 5.51 | inactive |  |  |
| COCCn1nnc2cc(C(=O)O)ccc21 | 6.50 | inactive |  |  |
| COCC(C)n1nnc2cc(C(=O)O)ccc21 (centres undefined) | 6.70 | inactive |  |  |
| CCC(C)n1nnc2cc(C(=O)O)ccc21 (centres undefined) | 6.48 | inactive |  |  |

The remaining lines, values ahead:

| pEC50 [1] | Activity [2] | Log EC50 [1] | Activity [3] | Structure (SMILES) |
| --- | --- | --- | --- | --- |
| 5.04 | inactive |  |  | O=C(O)c1ccc2c(c1)nnn2Cc1ccccc1 |
| 5.47 | inactive |  |  | CC(C)n1cnc2cc(C(=O)O)ccc21 |
| 6.59 | inactive |  |  | CCOCCn1nnc2cc(C(=O)O)ccc21 |
| 5.23 | inactive |  |  | O=C(O)c1ccc2c(c1)nnn2C1CCCCC1 |
| 6.59 | inactive |  |  | CC(C)(C)n1nnc2cc(C(=O)O)ccc21 |
|  | inactive | inactive |  | C=CCn1nnc2cc(C(=O)O)ccc21 |
| 5.13 | inactive |  |  | CCCn1nnc2cc(C(=O)O)ccc21 |
|  | inactive | inactive |  | COc1ccc(Cn2nnc3cc(C(=O)O)ccc32)cc1 |
| 6.05 | inactive |  |  | CCn1nnc2cc(C(=O)O)ccc21 |
|  | inactive | inactive |  | O=C(O)c1ccc2[nH]nnc2c1 |
| 6.40 | inactive |  | inactive | CC(C)n1nnc2cc(C(=O)O)ccc21 |
|  | inactive | inactive |  | CC(C)n1nnc2cc(-c3nn[nH]n3)ccc21 |
| < 5.00 | inactive |  |  | O=C(O)c1ccc2c(c1)nnn2Cc1cc(F)cc(F)c1 |
|  | inactive | inactive |  | O=C(O)c1ccc2c(c1)nnn2CC1CC1 |
| < 5.00 | inactive |  |  | O=C(O)c1ccc2c(c1)nnn2C(c1ccccc1)c1ccccc1 |
